{"source": "paper PMC4885601", "about": "(Journal of Medicinal Chemistry, 2016)", "key": {"δ-opioid receptor (DOR) [1]": {"target": "T1, δ-opioid receptor (DOR) (Rattus norvegicus, UniProt P33533)", "T1 sequence (P33533 whole entry)": "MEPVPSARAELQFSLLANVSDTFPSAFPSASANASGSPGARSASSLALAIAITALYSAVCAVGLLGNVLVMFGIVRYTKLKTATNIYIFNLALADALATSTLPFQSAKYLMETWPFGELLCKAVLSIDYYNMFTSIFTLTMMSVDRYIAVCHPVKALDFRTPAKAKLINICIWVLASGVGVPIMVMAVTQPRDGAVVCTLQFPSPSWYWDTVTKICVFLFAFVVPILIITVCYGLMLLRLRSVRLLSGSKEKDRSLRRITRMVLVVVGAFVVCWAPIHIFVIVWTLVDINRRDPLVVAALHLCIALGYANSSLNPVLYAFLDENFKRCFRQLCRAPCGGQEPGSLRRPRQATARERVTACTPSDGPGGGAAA", "conditions": "cited from earlier work"}, "mouse [2]": {"system": "mouse", "experiment": "In vivo warm water tail withdrawal", "conditions": "ip, up to 10 mg/kg"}, "κ-opioid receptor (KOR)": {"target": "κ-opioid receptor (KOR) (Homo sapiens, UniProt P41145)", "sequence (P41145 whole entry)": "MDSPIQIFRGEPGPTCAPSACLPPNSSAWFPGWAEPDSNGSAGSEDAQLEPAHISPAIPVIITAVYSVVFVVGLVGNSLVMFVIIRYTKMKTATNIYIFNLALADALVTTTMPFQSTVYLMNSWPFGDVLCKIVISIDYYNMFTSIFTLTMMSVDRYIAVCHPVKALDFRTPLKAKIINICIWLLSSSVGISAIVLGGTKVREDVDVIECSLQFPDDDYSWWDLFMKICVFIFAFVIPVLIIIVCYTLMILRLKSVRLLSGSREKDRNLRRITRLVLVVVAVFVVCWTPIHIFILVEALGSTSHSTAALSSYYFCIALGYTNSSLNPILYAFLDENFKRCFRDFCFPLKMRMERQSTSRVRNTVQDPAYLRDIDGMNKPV", "experiment": "Stimulation of [35S]GTPγS binding at KOR", "assay_type": "biochemical", "conditions": "percent maximal stimulation relative to U69,593 at 10 μM"}, "δ-opioid receptor (DOR) [3]": {"target": "T1, δ-opioid receptor (DOR)", "experiment": "Stimulation of [35S]GTPγS binding at DOR", "assay_type": "biochemical", "conditions": "percent maximal stimulation relative to DPDPE at 10 μM"}, "mouse [4]": {"system": "mouse", "conditions": "WWTW assay; cited from earlier work"}}, "note": "Read-outs that look alike come from different tables or passages of the source.", "data": [{"molecule": "CC(=O)N1CC[C@@H](NC(=O)[C@@H](N)Cc2c(C)cc(O)cc2C)c2cc(Cc3ccccc3)ccc21", "note": "[4b, (S)-N-((R)-1-Acetyl-6-benzyl-1,2,3,4-tetrahydroquinolin-4-yl)-2-amino-3-(4-hydroxy-2,6-dimethylphenyl)propanamide]", "values": [{"measurement": "% stimulation DOR", "setting": "δ-opioid receptor (DOR) [1]", "result": 26, "unit": "%"}]}, {"molecule": "Cc1cc(O)cc(C)c1C[C@H](N)C(=O)N[C@@H]1CCN(C(=O)C2CC2)c2ccc(Cc3ccccc3)cc21", "note": "[4f, (S)-2-Amino-N-((R)-6-benzyl-1-(cyclopropanecarbonyl)-1,2,3,4-tetrahydroquinolin-4-yl)-3-(4-hydroxy-2,6-dimethylphenyl)propanamide]", "values": [{"measurement": "antinociception in the WWTW assay", "setting": "mouse [2]", "result": "partial antinociception"}]}, {"molecule": "Cc1cc(O)cc(C)c1C[C@H](N)C(=O)N[C@@H]1CCN(C(=O)C2CCC2)c2ccc(Cc3ccccc3)cc21", "note": "[4g, (S)-2-Amino-N-((R)-6-benzyl-1-(cyclobutanecarbonyl)-1,2,3,4-tetrahydroquinolin-4-yl)-3-(4-hydroxy-2,6-dimethylphenyl)propanamide]", "values": [{"measurement": "% stimulation KOR", "setting": "κ-opioid receptor (KOR)", "result": "no efficacy"}]}, {"molecule": "COC(=O)N1CC[C@@H](NC(=O)[C@@H](N)Cc2c(C)cc(O)cc2C)c2cc(Cc3ccccc3)ccc21", "note": "[4h, Methyl (R)-4-((S)-2-Amino-3-(4-hydroxy-2,6-dimethylphenyl)propanamido)-6-benzyl-3,4-dihydroquinoline-1(2H)-carboxylate]", "values": [{"measurement": "antinociception in the WWTW assay", "setting": "mouse [2]", "result": "full in vivo antinociception"}]}, {"molecule": "Cc1cc(O)cc(C)c1C[C@H](N)C(=O)N[C@@H]1CCN(C(=O)c2ccccc2)c2ccc(Cc3ccccc3)cc21", "note": "[4j, (S)-2-Amino-N-((R)-1-benzoyl-6-benzyl-1,2,3,4-tetrahydroquinolin-4-yl)-3-(4-hydroxy-2,6-dimethylphenyl)propanamide]", "values": [{"measurement": "% stimulation DOR", "setting": "δ-opioid receptor (DOR) [3]", "result": "no stimulation"}]}, {"molecule": "CC(=O)N1CC[C@@H](NC(=O)[C@@H](N)Cc2c(C)cc(O)cc2C)c2cc(Cc3ccc4ccccc4c3)ccc21", "note": "[15b, (S)-N-((R)-1-Acetyl-6-(naphthalen-2-ylmethyl)-1,2,3,4-tetrahydroquinolin-4-yl)-2-amino-3-(4-hydroxy-2,6-dimethylphenyl)propanamide]", "values": [{"measurement": "duration of in vivo antinociception", "setting": "mouse [4]", "result": "greater than 3 h"}]}]}
